ChEMBL document CHEMBL4825677, “Design, synthesis and biological evaluation of novel benzofuran derivatives as potent LSD1 inhibitors” (Eur J Med Chem, 2021)

Columns and labels:
[1] = tested on: NCI-H460; assay: Induction of apoptosis in human NCI-H460 cells assessed as late apoptotic cells at 1 uM incubated for 48 hrs by AnnexinV-FITC/propidium iodide staining based flow cytometric analysis (reference value: 1.36%); format: functional
[2] = tested on: NCI-H460; assay: Induction of apoptosis in human NCI-H460 cells assessed as early apoptotic cells at 2 uM incubated for 48 hrs by AnnexinV-FITC/propidium iodide staining based flow cytometric analysis (reference value: 2.22%); format: functional
[3] = target: Cytochrome P450 2D6 (Homo sapiens, UniProt P10635); assay: Inhibition of CYP2D6 in human liver microsomes at 10 uM by LC-MS/MS analysis; format: ADME
Chain of Cytochrome P450 2D6 (P10635 whole entry): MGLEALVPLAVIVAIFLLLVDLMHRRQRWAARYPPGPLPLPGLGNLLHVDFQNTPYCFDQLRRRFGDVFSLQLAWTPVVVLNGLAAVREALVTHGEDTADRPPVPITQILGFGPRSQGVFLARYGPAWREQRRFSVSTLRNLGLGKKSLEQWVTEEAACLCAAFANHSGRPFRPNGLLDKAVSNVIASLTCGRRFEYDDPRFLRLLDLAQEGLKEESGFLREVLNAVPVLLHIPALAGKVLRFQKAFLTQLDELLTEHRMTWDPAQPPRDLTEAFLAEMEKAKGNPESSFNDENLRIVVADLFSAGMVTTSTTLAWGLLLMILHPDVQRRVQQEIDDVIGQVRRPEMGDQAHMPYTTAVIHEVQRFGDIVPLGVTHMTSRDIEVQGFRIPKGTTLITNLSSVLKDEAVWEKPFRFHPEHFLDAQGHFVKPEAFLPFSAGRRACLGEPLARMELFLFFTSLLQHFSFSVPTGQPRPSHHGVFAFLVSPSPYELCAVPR

[4] = tested on: NCI-H460; assay: cells; conditions: Homo sapiens, NCI-H460, 72 h
Description: Antiproliferative activity against human NCI-H460 cells assessed as reduction in cell viability incubated for 72 hrs by CCK8 assay

[5] = Toxicity in BALB/c mouse xenografted with human NCI-H460 cells assessed as body weight at 10 to 20 mg/kg/day, ip for 15 days and measured every 3 days; format: organism-based; conditions: in vivo, 360 h, dose 10-20 mg/kg/day, time 15 day
[6] = tested on: NCI-H460; assay: Inhibition of cell migration in human NCI-H460 assessed as reduction in cell migration at 0.3 to 1.2 uM by wound healing assay; format: functional, cell-based; conditions: dose 0.3-1.2 µM, time 24-48 hrs, TDE = time-dependent effect
[7] = target: Cytochrome P450 2C9 (Homo sapiens, UniProt P11712); assay: Inhibition of CYP2C9 in human liver microsomes at 10 uM by LC-MS/MS analysis; format: ADME
Chain of Cytochrome P450 2C9 (P11712 whole entry): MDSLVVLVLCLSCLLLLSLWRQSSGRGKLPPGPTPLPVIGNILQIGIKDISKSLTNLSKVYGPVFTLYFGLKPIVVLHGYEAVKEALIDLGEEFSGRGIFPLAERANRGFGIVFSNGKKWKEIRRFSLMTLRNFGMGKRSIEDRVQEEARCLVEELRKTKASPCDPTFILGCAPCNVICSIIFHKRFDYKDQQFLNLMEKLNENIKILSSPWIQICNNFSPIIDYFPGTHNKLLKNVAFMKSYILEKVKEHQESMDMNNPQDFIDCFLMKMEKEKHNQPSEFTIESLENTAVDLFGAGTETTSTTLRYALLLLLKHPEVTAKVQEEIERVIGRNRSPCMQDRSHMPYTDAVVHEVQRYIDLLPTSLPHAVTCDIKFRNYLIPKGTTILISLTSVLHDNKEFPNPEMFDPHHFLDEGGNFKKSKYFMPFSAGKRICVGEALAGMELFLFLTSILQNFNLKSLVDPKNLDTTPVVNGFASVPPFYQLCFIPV

[8] = tested on: THP-1; assay: cells; conditions: Homo sapiens, THP-1, 72 h
Description: Antiproliferative activity against human THP-1 cells assessed as reduction in cell viability incubated for 72 hrs by CCK8 assay

[9] = target: Cytochrome P450 2C19 (Homo sapiens, UniProt P33261); assay: Inhibition of CYP2C19 in human liver microsomes at 10 uM by LC-MS/MS analysis; format: ADME
Chain of Cytochrome P450 2C19 (P33261 whole entry): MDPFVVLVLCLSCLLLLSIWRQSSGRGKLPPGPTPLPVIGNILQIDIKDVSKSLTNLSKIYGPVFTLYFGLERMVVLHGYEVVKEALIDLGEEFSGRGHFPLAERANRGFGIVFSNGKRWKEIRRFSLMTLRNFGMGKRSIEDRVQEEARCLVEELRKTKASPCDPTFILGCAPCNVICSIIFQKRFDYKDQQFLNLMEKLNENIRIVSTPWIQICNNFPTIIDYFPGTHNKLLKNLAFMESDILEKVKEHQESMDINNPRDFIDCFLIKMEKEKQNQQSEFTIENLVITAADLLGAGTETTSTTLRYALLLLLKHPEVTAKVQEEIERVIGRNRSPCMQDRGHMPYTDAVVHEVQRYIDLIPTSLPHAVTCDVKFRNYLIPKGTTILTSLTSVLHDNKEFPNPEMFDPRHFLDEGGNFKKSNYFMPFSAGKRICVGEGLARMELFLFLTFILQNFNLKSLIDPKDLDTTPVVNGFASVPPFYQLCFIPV

[10] = tested on: NCI-H460; assay: Induction of apoptosis in human NCI-H460 cells assessed as early apoptotic cells at 3 uM incubated for 48 hrs by AnnexinV-FITC/propidium iodide staining based flow cytometric analysis (reference value: 2.22%); format: functional
[11] = tested on: THLE-2; assay: cells; conditions: Homo sapiens, THLE-2, 72 h
Description: Cytotoxicity against human THLE-2 cells assessed as reduction in cell viability incubated for 72 hrs by CCK8 assay

[12] = tested on: NCI-H460; assay: Antitumor activity against human NCI-H460 cells xenografted in BALB/c mouse assessed as reduction in tumor volume at 20 mg/kg/day, ip for 15 days; format: functional; conditions: 360 h, time 15 day
[13] = tested on: NCI-H460; assay: Antitumor activity against human NCI-H460 cells xenografted in BALB/c mouse assessed as reduction in tumor weight at 20 mg/kg/day, ip for 15 days; format: functional; conditions: 360 h, time 15 day
[14] = target: T1, Amine oxidase [flavin-containing] A (Homo sapiens, UniProt P21397); assay: Inhibition of N-terminal FLAG-tagged human recombinant MAO-A expressed in baculovirus-infected Sf9 cells by […]
T1 sequence (P21397 whole entry): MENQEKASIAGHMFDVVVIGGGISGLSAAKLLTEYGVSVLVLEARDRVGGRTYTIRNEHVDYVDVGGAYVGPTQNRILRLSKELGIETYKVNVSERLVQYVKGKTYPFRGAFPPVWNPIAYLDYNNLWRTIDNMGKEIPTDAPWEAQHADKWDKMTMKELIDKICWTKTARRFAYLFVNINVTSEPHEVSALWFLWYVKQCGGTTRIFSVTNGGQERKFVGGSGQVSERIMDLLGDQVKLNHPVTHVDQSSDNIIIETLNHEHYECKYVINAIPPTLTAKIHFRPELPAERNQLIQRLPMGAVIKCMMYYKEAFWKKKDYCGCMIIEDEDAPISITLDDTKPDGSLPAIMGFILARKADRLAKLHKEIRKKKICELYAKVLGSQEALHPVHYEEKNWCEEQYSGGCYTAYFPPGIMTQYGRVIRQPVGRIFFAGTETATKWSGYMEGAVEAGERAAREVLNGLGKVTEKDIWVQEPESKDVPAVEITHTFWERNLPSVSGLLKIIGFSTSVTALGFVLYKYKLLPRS

[15] = tested on: NCI-H460; assay: Induction of apoptosis in human NCI-H460 cells assessed as late apoptotic cells at 2 uM incubated for 48 hrs by AnnexinV-FITC/propidium iodide staining based flow cytometric analysis (reference value: 1.36%); format: functional
[16] = tested on: NCI-H460; assay: Induction of apoptosis in human NCI-H460 cells assessed as early apoptotic cells at 1 uM incubated for 48 hrs by AnnexinV-FITC/propidium iodide staining based flow cytometric analysis (reference value: 2.22%); format: functional
[17] = target: T2, Cytochrome P450 1A2 (Homo sapiens, UniProt P05177); assay: Inhibition of CYP1A2 in human liver microsomes at 10 uM by LC-MS/MS analysis; format: ADME
T2 sequence (P05177 whole entry): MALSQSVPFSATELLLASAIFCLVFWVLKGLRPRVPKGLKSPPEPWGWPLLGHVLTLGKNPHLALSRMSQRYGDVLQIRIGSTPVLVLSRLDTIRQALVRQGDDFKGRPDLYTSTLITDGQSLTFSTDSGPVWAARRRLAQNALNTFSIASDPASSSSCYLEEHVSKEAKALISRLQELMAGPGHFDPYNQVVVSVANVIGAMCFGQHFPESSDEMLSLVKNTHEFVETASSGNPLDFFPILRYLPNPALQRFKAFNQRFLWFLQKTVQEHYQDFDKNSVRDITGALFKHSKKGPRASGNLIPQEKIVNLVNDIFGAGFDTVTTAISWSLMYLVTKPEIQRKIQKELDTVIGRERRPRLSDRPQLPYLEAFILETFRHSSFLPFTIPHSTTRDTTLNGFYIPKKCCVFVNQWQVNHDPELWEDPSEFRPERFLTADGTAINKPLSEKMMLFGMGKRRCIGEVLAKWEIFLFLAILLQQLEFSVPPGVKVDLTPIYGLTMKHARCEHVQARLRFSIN

[18] = tested on: MCF7; assay: cells; conditions: Homo sapiens, MCF7, 72 h
Description: Antiproliferative activity against human MCF7 cells assessed as reduction in cell viability incubated for 72 hrs by CCK8 assay

[19] = tested on: NCI-H460; assay: Induction of apoptosis in human NCI-H460 cells assessed as late apoptotic cells at 3 uM incubated for 48 hrs by AnnexinV-FITC/propidium iodide staining based flow cytometric analysis (reference value: 1.36%); format: functional
[20] = target: T3, Amine oxidase [flavin-containing] B (Homo sapiens, UniProt P27338); assay: Inhibition of N-terminal FLAG-tagged human recombinant MAO-B expressed in baculovirus-infected Sf9 cells by […]
T3 sequence (P27338 whole entry): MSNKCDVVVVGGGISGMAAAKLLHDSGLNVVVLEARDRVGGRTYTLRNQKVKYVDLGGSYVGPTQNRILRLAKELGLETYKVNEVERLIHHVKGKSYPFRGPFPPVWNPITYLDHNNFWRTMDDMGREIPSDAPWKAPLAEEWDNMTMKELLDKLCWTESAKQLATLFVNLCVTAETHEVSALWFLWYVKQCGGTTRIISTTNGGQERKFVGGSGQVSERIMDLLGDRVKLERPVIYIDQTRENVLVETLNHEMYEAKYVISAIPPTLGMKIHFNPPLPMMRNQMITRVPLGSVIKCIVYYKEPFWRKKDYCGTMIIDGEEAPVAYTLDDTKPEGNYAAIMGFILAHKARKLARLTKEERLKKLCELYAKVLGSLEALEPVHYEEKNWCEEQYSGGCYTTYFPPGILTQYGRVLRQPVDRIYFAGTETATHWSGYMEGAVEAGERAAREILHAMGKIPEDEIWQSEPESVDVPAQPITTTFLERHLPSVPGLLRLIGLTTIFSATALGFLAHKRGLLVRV

[21] = tested on: MGC-803; assay: cells; conditions: Homo sapiens, MGC-803, 72 h
Description: Antiproliferative activity against human MGC-803 cells assessed as reduction in cell viability incubated for 72 hrs by CCK8 assay

[22] = target: Cytochrome P450 3A4 (Homo sapiens, UniProt P08684); assay: Inhibition of CYP3A4 in human liver microsomes at 10 uM by LC-MS/MS analysis; format: ADME
Chain of Cytochrome P450 3A4 (P08684 whole entry): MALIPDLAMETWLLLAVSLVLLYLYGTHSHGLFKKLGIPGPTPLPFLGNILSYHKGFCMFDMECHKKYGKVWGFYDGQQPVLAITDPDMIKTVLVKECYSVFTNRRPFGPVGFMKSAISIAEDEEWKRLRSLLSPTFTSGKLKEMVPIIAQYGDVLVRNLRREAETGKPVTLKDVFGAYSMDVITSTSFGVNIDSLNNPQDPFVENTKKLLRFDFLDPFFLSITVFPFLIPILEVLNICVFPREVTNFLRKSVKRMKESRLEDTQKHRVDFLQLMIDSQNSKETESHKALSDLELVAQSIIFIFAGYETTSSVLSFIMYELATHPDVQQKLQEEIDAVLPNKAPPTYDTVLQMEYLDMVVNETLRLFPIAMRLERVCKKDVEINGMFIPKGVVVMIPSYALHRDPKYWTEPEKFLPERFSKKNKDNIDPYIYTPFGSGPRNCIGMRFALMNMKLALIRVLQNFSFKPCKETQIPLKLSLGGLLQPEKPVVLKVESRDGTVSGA

[23] = tested on: A549; assay: cells; conditions: Homo sapiens, A549, 72 h
Description: Antiproliferative activity against human A549 cells assessed as reduction in cell viability incubated for 72 hrs by CCK8 assay

[24] = Microsomal stability in human liver microsomes assessed as parent compound remaining after 60 mins in presence of NADPH regenerating system by LC-MS/MS analysis; format: ADME, Microsome; conditions: read-out: Stabilty
[25] = Microsomal stability in human liver microsomes assessed as parent compound remaining after 60 mins in absence of NADPH regenerating system by LC-MS/MS analysis; format: ADME, Microsome; conditions: read-out: Stabilty
[26] = tested on: NCI-H460; assay: Inhibition of cell migration in human NCI-H460 cells assessed as reduction in cell migration measured after 48 hrs by wound healing assay; format: functional, cell-based; conditions: dose 0.3-1.2 µM

Question: With `Cc1ccc(-c2cc3occ(CN4CCC[C@H](N)C4)c3cc2-c2ccc(C#N)cc2)cc1` as the molecule, how does the Activity [1] read?
Answer: 0.87%

Question: And the Activity [2]?
Answer: 6.78%

Question: And the “inhibition (INH)” value [3]?
Answer: Active

Question: What about the IC50 [4] of the same molecule?
Answer: 2.06 µM

Question: What about the Activity [5] of the same molecule?
Answer: Non-Toxic

Question: What about the inhibition [6] of the same molecule?
Answer: Tde

Question: And the “inhibition (INH)” value [7]?
Answer: Active

Question: And the IC50 [8]?
Answer: 6.15 µM

Question: And the “inhibition (INH)” value [9]?
Answer: Active

Question: And the Activity [10]?
Answer: 19.13%

Question: And the IC50 [11]?
Answer: 7.07 µM

Question: What about the inhibition in vivo at 20 mg/kg/day [12] of the same molecule?
Answer: 68%

Question: What about the inhibition in vivo at 20 mg/kg/day [13] of the same molecule?
Answer: 64%

Question: And the IC50 [14]?
Answer: > 20 µM

Question: What about the Activity [15] of the same molecule?
Answer: 2.77%

Question: What about the Activity [16] of the same molecule?
Answer: 2.22%

Question: What about the “inhibition (INH)” value [17] of the same molecule?
Answer: Active

Question: And the IC50 [18]?
Answer: 2.9 µM

Question: What about the Activity [19] of the same molecule?
Answer: 11.01%

Question: What about the IC50 [20] of the same molecule?
Answer: > 20 µM

Question: And the IC50 [21]?
Answer: 5.85 µM

Question: And the “inhibition (INH)” value [22]?
Answer: Active

Question: And the IC50 [23]?
Answer: 5.74 µM

Question: And the remaining at 1 h [24]?
Answer: 47%

Question: And the remaining at 1 h [25]?
Answer: 76.1%

Question: What about the inhibition [26] of the same molecule?
Answer: Dose-Dependent Effect
